The source of these data is US20240140953A1, “INHIBITORS OF MENIN-MLL INTERACTION” (BIOMEA FUSION, INC., priority 2018, published 2024).

Where two headings read alike, the source gives them in different places.

One assay deals with MOLM-13. Nature of the assay: Long term proliferation assay (Table 3A), MOLM-13. Format: cell-based. As to conditions: Homo sapiens.
For a further assay, the system named is MV4-11 (MLL-AF4). Nature of the assay: Proliferation study, CellTiterGlo, 4 days (Example 102), MV4-11. Format: cell-based, human. The settings on record: MV4-11, 4 days treatment; for IC50: CellTiterGlo; for MV4-11 (MLL-AF4) % max: maximal inhibition. From the text: The objective of the study was to evaluate the ability of representative compounds of the present invention, inhibitors of Menin/MLL interaction to inhibit cell proliferation. The proliferation inhibitory effect was investigated in two human MLL-leukemia cells selected on the bases of MLL fusion protein and listed in Table 102. HL-60 cell line was used as negative control.
ATP is present in all metabolically active cells and is considered as a marker for cell viability and proliferation. The metabolic cell activity was determined using the CellTiter-Glo kit from Promega, an ATP monitoring system based on the production of luminescence by the reaction of ATP with added UltraGlo® recombinant luciferase (Kawano et al., 2016), according to the supplier's experimental recommendations.
The described assay evaluates the ability of 4 representative compounds to inhibit the cell proliferation in the human MLL-leukemia cells plus a negative control cell line.
The assay provides potency values (IC50) for each test compound at a single time point Day 4 (T4).
Seven concentrations of the compounds (2.00E-05-6.67E-06-2.22E-06-7.41E-07-2.47E-07-8.23E-08-2.74E-08M), were assessed in duplicate in an individual test occasion in all the cell lines. MI-503 (Borkin et al., 2015) was used as reference compound and was tested at the same concentrations as the NCEs. 100% of proliferation is represented by the untreated cells (0.2% DMSO). The cell growth was monitored up to 4 days in culture.
MV4-11, MOLM-13 and HL-60 cells (see Table 2) were maintained in RPMI-1640 medium (Invitrogen, Cat. n. 618700, Batch n. 1965930) supplemented with 10% of Heat Inactivated FBS (Invitrogen, Cat n. 10500, Batch n. 08Q8078K) and 1% Pen-Strep (Invitrogen, Cat. N. 15140, Batch n. 1910859) and cultured at 37° C. in a humidified incubator with 5% CO2. All the cell lines grow in suspension and the cell density was maintained in a range of 2×10^5-1×10^6 viable cells/ml. Cells were pelleted at 130 g×5 min and conditioned medium was used to dilute the cell suspension.
Test items were dissolved in glass vials at 10 mM in DMSO with purity ≥99.9% (Sigma, D8418, batch n. SHBH4245V) and stored at −20° C. in 1.5 mL Eppendorf tubes.
Serial dilutions 1 to 3 in DMSO 100% were prepared starting from a 10 mM stock solutions to generate 7 points concentration response curve (CRC).
For each plate to test, one 0.4 μL copy plate and four 0.3 μL copy plates were then stamped into 96-well plates not treated for cell adhesion (Sarstedt—cat.no. 82.1581.001) by acoustic liquid Handling, Echo, at a concentration which was 500 fold the final assay concentration. Stamped plates were stored at −20° C. The final concentrations for the reference compound, MI-503, and the test items were: 2.00E-05, 6.67E-06, 2.22E-06, 7.41E-07, 2.47E-07, 8.23E-08 and 2.74E-08 M.
Cells were plated in 96-well flat bottom microtiter plates at cell density of 15,000 cells/ml for HL-60, 1000 cells/ml for MOLM-13 and 10,000 cell/ml for MV4-11. Cells were treated with 0.2% DMSO (Sigma, D8418, batch n. SHBH4245V) or serial dilutions of compounds (0.027 μM-20 μM) in DMSO (0.2% final concentration). Cells were incubated in a 5% CO2 incubator at 37° C. for 4 days. A CellTiterGlo viability assay (Promega) was employed. Luminescence was read by using VictorV (Perkin Elmer) multilabel plate reader using the standard protocol for luminescence in 96 well plate. The experiment was performed in duplicate.
Data were expressed as % of inhibition compared to the 0.2% DMSO negative control, and was calculated as follows: […]
CRCs were analysed by GraphPad and IC50 values were calculated by non-linear regression using 4 parameter-logistic equation. IC50 (μM) values were reported in the final data table. The curve fittings were performed leaving free all the parameters. Any constrain were reported in the results table.

Where [1] appears, read: 96 h, MOLM-13, Day 4, read-out: MOLM-13 Day 4 IC50.
The mark [2] stands for this setting: Homo sapiens, MV4-11, 96 h, read-out: MV4-11 (MLL-AF4) IC50.
The mark [3] stands for this setting: Homo sapiens, MV4-11, 96 h, read-out: MV4-11 (MLL-AF4) pIC50 (converted).

For the molecule `O=C(Nc1ccc(-c2cc3c(N4CCOCC4)ncnc3[nH]2)cc1)Nc1cc(-c2cccnc2)n[nH]1` [Compound 9, 1-{4-[4-(morpholin-4-yl)-7H-pyrrolo[2,3-d]pyrimidin-6-yl]phenyl}-3-[3-(pyridin-3-yl)-1H-pyrazol-5-yl]urea], the IC50 in the assay on MOLM-13 (setting [1]) is 324 nM; in the assay on MOLM-13 (264 h, MOLM-13, Day 11, read-out: MOLM-13 Day 11 IC50), 155 nM; with MV4-11 (MLL-AF4) (setting [2]), 490 nM; with MV4-11 (MLL-AF4) (setting [3]), 490 nM. Also, in the assay on MV4-11 (MLL-AF4), the “MV4-11 (MLL-AF4) % max” value amounted to 102%.

In the case of `Cn1nc(-c2cccnc2)cc1CC(=O)Nc1ccc(-c2cc3c(N4CCOCC4)ncnc3[nH]2)cc1` [Compound 11, 2-[1-methyl-3-(pyridin-3-yl)-1H-pyrazol-5-yl]-N-{4-[4-(morpholin-4-yl)-7H-pyrrolo[2,3-d]pyrimidin-6-yl]phenyl}acetamide], the IC50 with MOLM-13 (setting [1]) is 260 nM; with MV4-11 (MLL-AF4) (setting [2]), 200 nM; with MV4-11 (MLL-AF4) (setting [3]), 282 nM; in the assay with MV4-11 (MLL-AF4) (read-out: MV4-11 (MLL-AF4) IC50) it was 280 nM. For the same molecule, the “MV4-11 (MLL-AF4) % max” value in the assay on MV4-11 (MLL-AF4) is reported as 100%.

In the case of `O=C(Cc1cc(-c2cccnc2)n[nH]1)Nc1ccc(-c2nc3c(N4CCOCC4)ncnc3[nH]2)cc1` [Compound 12, N-{4-[6-(morpholin-4-yl)-9H-purin-8-yl]phenyl}-2-[3-(pyridin-3-yl)-1H-pyrazol-5-yl]acetamide], the IC50 was 710 nM in the assay on MOLM-13 (setting [1]), 430 nM in the assay on MV4-11 (MLL-AF4) (setting [2]) and 427 nM with MV4-11 (MLL-AF4) (setting [3]). The “MV4-11 (MLL-AF4) % max” value in the assay with MV4-11 (MLL-AF4) stood at 89%. Also, in the assay with MV4-11 (MLL-AF4) (up to 20 μM), the “inhibition of cell viability (in words)” value is “fully inhibited”.
